In one test the target is T1, TRAAKG165E (Homo sapiens, UniProt Q9NYG8, G139E).
T1 construct: The transcribed messages encode H. sapiens TRAAK amino acids 1–393; expressed in transfected cells; host or cells: Xenopus laevis oocytes, cRNA injection
T1 sequence (Q9NYG8 1-393 G139E): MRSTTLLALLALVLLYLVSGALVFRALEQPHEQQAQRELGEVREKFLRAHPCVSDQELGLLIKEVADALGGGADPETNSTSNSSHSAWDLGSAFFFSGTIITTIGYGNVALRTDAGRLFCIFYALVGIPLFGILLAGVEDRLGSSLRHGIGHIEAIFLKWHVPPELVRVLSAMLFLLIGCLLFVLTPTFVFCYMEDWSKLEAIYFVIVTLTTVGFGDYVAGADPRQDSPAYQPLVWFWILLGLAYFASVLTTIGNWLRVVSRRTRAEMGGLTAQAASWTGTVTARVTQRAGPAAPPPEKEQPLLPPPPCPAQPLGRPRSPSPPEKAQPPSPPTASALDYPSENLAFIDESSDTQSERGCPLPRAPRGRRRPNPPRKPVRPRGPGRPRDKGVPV
The test is described as follows: Excised patch recording of TRAAK mutant G165E. The class given is biochemical. The text has this:
(§1) For patch clamp recording from Xenopus oocytes, genes encoding full-length Homo sapiens TRAAK (UniProt Q9NYG8–2), TREK-1 (UniProt O95069), and TREK-2 (UniProt P57789) were codon optimized for eukaryotic expression, synthesized (Genewiz), and cloned into a modified pGEMHE vector using Xho1 and EcoR1 restriction sites. The transcribed messages encode H. sapiens TRAAK amino acids 1–393, TREK-1 amino acids 1–426, or TREK-2 amino acids 1–538 with an additional three amino acids (SNS) at the C terminus. TRAAK mutants were introduced by polymerase chain reaction (PCR). Linearized DNA was transcribed in vitro using T7 polymerase. […] Currents were recorded at 25 °C from inside-out patches excised from oocytes 1 to 5 d after RNA injection. […]
(§2) Patches were evaluated with voltage-step protocols to confirm TRAAK expression and minimal non-specific leak based on reversal potential. Currents were recorded using an Axopatch 200B amplifier (Molecular Devices) at a bandwidth of 1 kHz and digitized with an Digidata 1550B (Molecular Devices) at 100–500 kHz using pClamp10.7 software. […] In an effort to minimize variability associated with differences in resting membrane tension, we targeted patches with low basal curvature and low resting channel activity and ensured measured pressure difference across the patch was as close to zero as possible at rest to prevent mechanical activation of channels. […]

Another test concerns the target T2, TRAAKG165R (Homo sapiens, UniProt Q9NYG8, G139R).
T2 construct: The transcribed messages encode H. sapiens TRAAK amino acids 1–393; expressed in transfected cells; host or cells: Xenopus laevis oocytes, cRNA injection
T2 sequence (Q9NYG8 1-393 G139R): T1 sequence (Q9NYG8 1-393 G139E) with E139R
As to the kind of experiment: Excised patch recording of TRAAK mutant G165R. It counts as biochemical.
From the text: as §1, §2

A further test concerns TRPV1–4. Set-up: method as in PMID 30697147, PMID 31566564. Conditions: activation; cited from earlier work.
The next test has as its target T3, Homo sapiens TREK-1 (Homo sapiens, UniProt O95069).
T3 construct: TREK-1 amino acids 1–426; expressed in transfected cells; host or cells: Xenopus laevis oocytes, cRNA injection
T3 sequence (O95069 1-426): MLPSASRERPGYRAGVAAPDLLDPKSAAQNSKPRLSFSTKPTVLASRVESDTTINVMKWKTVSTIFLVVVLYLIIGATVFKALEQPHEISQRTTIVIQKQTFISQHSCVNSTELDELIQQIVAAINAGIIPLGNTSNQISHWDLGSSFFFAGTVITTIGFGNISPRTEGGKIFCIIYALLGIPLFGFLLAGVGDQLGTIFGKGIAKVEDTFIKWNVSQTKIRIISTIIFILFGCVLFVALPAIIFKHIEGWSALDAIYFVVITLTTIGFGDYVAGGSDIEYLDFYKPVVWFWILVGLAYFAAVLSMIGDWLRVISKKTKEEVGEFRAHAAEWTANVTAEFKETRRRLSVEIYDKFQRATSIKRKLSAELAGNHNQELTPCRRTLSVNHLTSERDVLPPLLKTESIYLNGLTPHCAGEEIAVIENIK
The test is described as follows: Excised inside-out patch recording of TREK-1 from Xenopus oocytes. The class given is biochemical.
From the text: For patch clamp recording from Xenopus oocytes, genes encoding full-length Homo sapiens TRAAK (UniProt Q9NYG8–2), TREK-1 (UniProt O95069), and TREK-2 (UniProt P57789) were codon optimized for eukaryotic expression, synthesized (Genewiz), and cloned into a modified pGEMHE vector using Xho1 and EcoR1 restriction sites. The transcribed messages encode H. sapiens TRAAK amino acids 1–393, TREK-1 amino acids 1–426, or TREK-2 amino acids 1–538 with an additional three amino acids (SNS) at the C terminus. TRAAK mutants were introduced by polymerase chain reaction (PCR). Linearized DNA was transcribed in vitro using T7 polymerase. Complementary RNA (0.1 to 10 ng for TRAAK, TREK-1, TREK-2, and mutants) in 50 nL H2O was injected into Xenopus laevis oocytes extracted from anesthetized frogs. Currents were recorded at 25 °C from inside-out patches excised from oocytes 1 to 5 d after RNA injection. […]
as §2, with “channels. Data were analyzed using Clampfit 10.7, Excel, and Graphpad Prism software.” for “channels.”
To avoid cannabinoid absorption to plastic, cannabinoid solutions were made in glass vials and diluted by weight, perfusion was performed using glass tubing pulled from borosilicate glass Pasteur pipettes (Fisherbrand, Cat# 13–678-20C), and recordings were performed in glass chambers. Channel activity was continuously recorded during perfusion steps. […]

Numbering of substitutions follows the chain as printed.

The values that follow come from article doi:10.1101/2024.12.09.627564, “Cannabinoid inhibition of mechanosensitive K^+ channels” (bioRxiv, 2024).

A word on the IC50: it is the concentration that gives 50% inhibition. A word on the EC50: it is the concentration at which the effect is half-maximal.

For `C=C(C)[C@@H]1CCC(C)=C[C@H]1c1c(O)cc(CCCCC)cc1O` [CBD, Cannabidiol], the IC50 against TRAAKG165E stood at 162 ± 8 nM; against TRAAKG165R, 356 ± 18 nM; against Homo sapiens TREK-1 it was 1500 nM. Further, in the test on TRPV1–4, the EC50 is 1000 to 4000 nM. This compound also displayed a Hill-coefficient at Homo sapiens TREK-1 (TREK-1 dose-response) of 1.5. Further, at Homo sapiens TREK-1 (TREK-1 vs TRAAK), the “fold less sensitive than TRAAK” value is recorded as ~ 10 fold.
